“And” between values parts separate entries of the source, which are not always exact repeats. Equal values may be shown once.
Legend:
[1] = tested on: K562 human chronic myeloid leukemia subcutaneous xenograft; experiment: Antitumor effect in subcutaneous tumor model of K562 human chronic myeloid leukemia; type: in vivo, NOD/SCID mice
Method: (§1) K562 cells were inoculated subcutaneously on the right back of NOD/SCID mice to establish human chronic myeloid leukemia subcutaneous xenograft animal model. When the mean tumor volume reached 130 mm^3, the mice used in the experiment were divided into groups and there were 8 mice in each group, then the mice were injected intravenously twice a week. The therapeutic efficiency was evaluated based on the relative tumor proliferation rate (T/C %).
(§2) K562 cell line was cultured in vitro in RPMI-1640 medium supplemented with fetal bovine serum with a volume ratio of 10% and L-glutamine (2 mM) at 37 with the air containing CO2 with a proportion of 5%. The tumor cells were routinely passaged twice a week. The tumor cells in the exponential growth phase were collected and suspended in the mixture formed by PBS and matirgel with an equal volume, and then placed on ice for inoculation of tumor cells.
(§3) 5×10^6 of K562 cells were inoculated subcutaneously on the right back of the mice used in the experiment, the tumor growth was observed regularly, and stochastic grouping of the mice according to tumor size and body weight in mice and pharmacotherapy were carried out when the mean volume of the tumor reached 130 mm^3.
In this study all the operations related to operating, nursing and treatment were undertaken according to the handbook approved by Association for Assessment and Accreditation of Laboratory Animal Care (AAALAC). […] In everyday observation, the influence of tumor growth on animal normal behaviors (such as exercise, eating, drinking, change of weight, eyes, hair) and any other abnormalities were noticed. Death and clinical symptoms of animals in each group were recorded.
Throughout the experiment, the weight and tumor size of mice were measured twice a week. The computational formula of tumor size was as follows: tumor volume (mm^3)=0.5×(long diameter of tumor x short diameter of tumor^2). According to the tumor size in experimental groups and control group, RTV and T/C ratio were calculated. RTV is the relative tumor volume. T/C ratio is the percentage ratio of relative tumor volumes in the treatment group and the control group at a time point after finish of treatment, and reflects the antitumor pharmacodynamic actions of the different treatment groups.

[2] = tested on: PC-3 human prostate cancer subcutaneous xenograft; experiment: Pharmacodynamics in subcutaneous tumor model of PC-3 human prostate cancer; type: in vivo, Balb/c nude mice; settings: PC-3 xenograft; for T/C (%) relative tumor proliferation rate / Relative tumor volume (x ± SE) / Tumor volume (x ± SE) / Effect on tumor growth compared with the solvent control group (in words): 10 mg/kg; for Effect on tumor growth compared with the solvent control group (in words): p values less than 0.01; for Anti-tumor effect compared with dasatinib (in words): same dose 10 mg/kg, 25th day
Method: as §1, with “PC-3” for “K562”, “Balb/c nude” for “NOD/SCID”, “prostate cancer” for “chronic myeloid leukemia”, “160” for “130”, “group,” for “group, then”
as §2, with “PC-3” for “K562”, “Ham's F12K” for “RPMI-1640”, “5%, the” for “5%. The”
as §3, with “PC-3” for “K562”, “weas” for “was”, “160” for “130”
In this study all the operations related to operating, nursing and treatment were undertaken according to the handbook approved by Association for Assessment and Accreditation of Laboratory Animal Care (AAALAC). […] In everyday observation, the influence of tumor growth on normal animal behaviors (such as exercise, eating, drinking, change of weight, eyes, hair) and any other abnormalities were noticed. Death and clinical symptoms of animals in each group were recorded.
Throughout the experiment, the weight and tumor size of mice were measured twice a week. The computational formula of tumor size was as follows: tumor volume (mm^3)=0.5×(long diameter of tumor×short diameter of tumor^2). According to the tumor size in experimental groups and control group, RTV and T/C ratio were calculated. RTV is the relative tumor volume. T/C ratio is the percentage ratio of relative tumor volumes in the treatment groups and the control group at a time point after finish of treatment, and reflects the antitumor pharmacodynamic actions of the different treatment groups. When the experiment was finished, the tumors were recorded by photographs in the following two ways: 1. the animals in each group were euthanized by CO2, and the tumor-bearing sides were placed upwards and taken photographs for recording by group; 2. the tumors were removed and weighed first, and T/C values (percentage ratio of tumor weights in treatment groups and the control group) were calculated, and then tumors in each group were placed in order at the same time and taken photographs for recording.

[3] = 5 mg/kg, 14th day after grouping, compared with the solvent control group
[4] = 5 mg/kg, 21st day after grouping, compared with the group using dasatinib
[5] = 5 mg/kg, i.v. twice a week, 14th day after grouping
[6] = 5 mg/kg, i.v. twice a week, 21st day after grouping
[7] = 5 mg/kg, i.v. twice a week, 21st day after grouping, 5 mg/kg
[8] = 5 mg/kg, injected intravenously twice a week, 14th day after grouping, 5 mg/kg
[9] = 5 mg/kg, p values less than 0.001
[10] = 22nd day after grouping, compared with the solvent control group
[11] = 25th day after grouping, compared with the group using dasatinib
[12] = i.v. twice a week, 22nd day after grouping
[13] = i.v. twice a week, 25th day after grouping
[14] = injected intravenously twice a week, 22nd day after grouping
[15] = 5 mg/kg, 21st day after grouping, compared with the group using dasatinib, 5 mg/kg

Row | Molecule | T/C (%) relative tumor proliferation rate [1, 3] [%] | T/C (%) relative tumor proliferation rate [1, 4] [%] | Relative tumor volume (x ± SE) [1, 5] | Relative tumor volume (x ± SE) [1, 6] | Tumor volume (x ± SE) [1, 7] | Tumor volume (x ± SE) [1, 8] | Effect on tumor growth compared with the solvent control group (in words) [1, 9] | Anti-tumor effect compared with dasatinib (in words) ([1]; same dose 5 mg/kg, 21st day) | T/C (%) relative tumor proliferation rate [2, 10] [%] | T/C (%) relative tumor proliferation rate [2, 11] [%] | Relative tumor volume (x ± SE) [2, 12] | Relative tumor volume (x ± SE) [2, 13] | Tumor volume (x ± SE) [2, 13] | Tumor volume (x ± SE) [2, 14] | Effect on tumor growth compared with the solvent control group (in words) [2] | Anti-tumor effect compared with dasatinib (in words) [2] | T/C (%) relative tumor proliferation rate [1, 15] [%]
1 | ^20k4arm -PEG-OCH2COODS [DSN-2] | 16 | 121 | 282.1 ± 46.3 | 350.3 ± 71.9 | 462 mm^3 and 462 ± 114 mm^3 | 372 mm^3 and 372 ± 80 mm^3 | statistically significant effect of anti-K562 tumor growth | no statistically significant differences | 71 | 88 | 1116.1 ± 98.2 | 1087.1 ± 88.2 | 1644 mm^3 and 1644 ± 146 mm^3 | 1748 mm^3 and 1748 ± 146 mm^3 | statistically significant effect of anti-PC-3 tumor growth | no statistically significant difference | 
2 | ^20k4arm -PEG-OCH2CH2ODS [DSN-1] | 14 | 96 | 254.6 ± 42.2 | 277.5 ± 32.2 | 375 mm^3 and 375 ± 89 mm^3 | 349 mm^3 and 349 ± 76 mm^3 | statistically significant effect of anti-K562 tumor growth | no statistically significant differences | 67 | 79 | 1053.2 ± 107.4 | 975.6 ± 103.5 | 1476 mm^3 and 1476 ± 118 mm^3 | 1649 mm^3 and 1649 ± 142 mm^3 | statistically significant effect of anti-PC-3 tumor growth | more significant | 
3 | ^20k4arm -PEG-OCH2CH2OCOODS [DSN-3] | 11.8 |  | 215.4 ± 41.1 | 208 ± 37.6 | 281 mm^3 and 281 ± 56 mm^3 | 295 mm^3 and 295 ± 68 mm^3 | statistically significant effect of anti-K562 tumor growth | more significant | 59 | 70 | 927.5 ± 96.3 | 864.7 ± 74.5 | 1307 mm^3 and 1307 ± 155 mm^3 | 1452 mm^3 and 1452 ± 139 mm^3 | statistically significant effect of anti-PC-3 tumor growth | more significant | 42
4 | Cc1nc(Nc2ncc(C(=O)Nc3c(C)cccc3Cl)s2)cc(N2CCN(CCO)CC2)n1 [dasatinib] | 12.4 |  | 226.9 ± 30.0 | 289.1 ± 46.9 | 391 mm^3 and 391 ± 79 mm^3 | 311 mm^3 and 311 ± 55 mm^3 | statistically significant effect of anti-K562 tumor growth |  | 73 |  | 1148.9 ± 112.7 | 1235.3 ± 119.6 | 1868 mm^3 and 1868 ± 76 mm^3 | 1752 mm^3 and 1752 ± 76 mm^3 | statistically significant effect of anti-PC-3 tumor growth |  | 
5 | ^20k4arm-PEG-OCH2CH2NHCOODS [DSN-4] | 8.5 |  | 155.5 ± 28.5 | 161.8 ± 18.9 | 219 mm^3 and 219 ± 45 mm^3 | 210 mm^3 and 210 ± 47 mm^3 | statistically significant effect of anti-K562 tumor growth | more significant | 48 | 63 | 754.6 ± 84.5 | 778.1 ± 82.4 | 1177 mm^3 and 1177 ± 120 mm^3 | 1182 mm^3 and 1182 ± 68 mm^3 | statistically significant effect of anti-PC-3 tumor growth | more significant | 36

Reference: patent publication US9566344B2, “Dasatinib and nonlinear configuration polyethylene glycol conjugate” (priority 2013, dated 2017)
